Where only a bound is given, the exact number is not on record here.

The test system of test [1] is HAP1 MTAP-deleted cell line. Put plainly: Viability assay, MTAP-deleted cell line. The following applies: Homo sapiens, HAP1, viability assay, MTAP-deleted cell line; read-out: HAP1 MTAP deleted viability. It counts as cell-based. The source says: Table 1 additionally indicates IC50 values in a viability assay for the MTAP-deleted cell line (column 10), indicating the effect of treatment with compound on cell survival.

In test [2] the target is T1, PRMT5 (Homo sapiens, UniProt O14744).
T1 construct: purchased Viva (custom protein)
T1 sequence (O14744 whole entry): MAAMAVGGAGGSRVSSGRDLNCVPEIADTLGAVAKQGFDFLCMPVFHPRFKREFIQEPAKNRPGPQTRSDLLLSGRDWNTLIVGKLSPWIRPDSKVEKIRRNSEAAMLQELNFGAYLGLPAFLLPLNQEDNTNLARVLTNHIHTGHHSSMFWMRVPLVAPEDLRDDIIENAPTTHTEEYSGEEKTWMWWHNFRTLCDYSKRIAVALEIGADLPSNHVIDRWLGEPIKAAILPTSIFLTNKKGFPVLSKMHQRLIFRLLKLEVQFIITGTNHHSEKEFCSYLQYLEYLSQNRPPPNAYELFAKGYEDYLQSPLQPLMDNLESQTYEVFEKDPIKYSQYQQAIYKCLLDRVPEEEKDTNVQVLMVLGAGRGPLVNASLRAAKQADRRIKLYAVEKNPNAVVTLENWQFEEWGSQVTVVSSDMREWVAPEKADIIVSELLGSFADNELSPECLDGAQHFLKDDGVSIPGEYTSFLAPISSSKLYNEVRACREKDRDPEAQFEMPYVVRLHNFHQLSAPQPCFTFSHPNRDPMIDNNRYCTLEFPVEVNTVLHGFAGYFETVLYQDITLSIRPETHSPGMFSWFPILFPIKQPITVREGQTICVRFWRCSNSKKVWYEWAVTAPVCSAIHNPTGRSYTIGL
T1 sequence (Q9BQA1 whole entry partner): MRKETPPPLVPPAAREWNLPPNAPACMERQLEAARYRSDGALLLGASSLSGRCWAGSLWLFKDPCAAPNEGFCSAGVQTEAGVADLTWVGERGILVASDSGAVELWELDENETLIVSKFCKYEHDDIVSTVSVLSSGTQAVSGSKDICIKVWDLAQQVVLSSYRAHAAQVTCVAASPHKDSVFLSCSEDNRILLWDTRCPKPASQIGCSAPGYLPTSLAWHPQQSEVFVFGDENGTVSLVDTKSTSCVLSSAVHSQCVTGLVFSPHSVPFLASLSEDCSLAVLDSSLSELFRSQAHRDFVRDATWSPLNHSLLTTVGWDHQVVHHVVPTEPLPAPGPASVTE
Put plainly: PRMT5 biochemical IC50 assay with SAM as cofactor. The following applies: PRMT5, SAM as cofactor; read-out: SAM IC50.

Test [3] has as its target T1, PRMT5. Put plainly: PRMT5 biochemical IC50 assay with no cofactor. The following applies: PRMT5, no cofactor; read-out: No Cofactor/rel IC50. The source says: Table 1 indicates IC50 values (μM) against PRMT5 for exemplary compounds in the presence of SAM as cofactor, with no cofactor, and with MTA as cofactor, respectively (columns 4-6). […] Ki values can be calculated from the IC50 values as described in the Examples section. As detailed in the Examples section, for the assay performed in the presence of SAM, IC50=Ki×1.5 (Ki=IC50/1.5).

The test system of test [4] is HAP1 MTAP-deleted cell line. Put plainly: SDMA in-cell western assay, HAP1 MTAP-deleted. It counts as cell-based. The following applies: for IC50: Homo sapiens, HAP1, SDMA in-cell western, HAP1 MTAP-deleted, read-out: HAP1 MTAP deleted IC50; for MTAP intact/deleted ratio: IC50 ratio HAP1 MTAP-intact vs HAP1 MTAP-deleted, SDMA in-cell western. The method in brief:
(§1)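 IC50 values come from SDMA signal quantified by in-cell western in two HAP1 lines, one with native MTAP levels and one lacking MTAP.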

Test [5] addresses T1, PRMT5. Put plainly: PRMT5 biochemical IC50 assay with MTA as cofactor. The following applies: PRMT5, MTA as cofactor; read-out: MTA IC50.
Test [6] deals with HAP1 MTAP-intact cell line. Put plainly: SDMA in-cell western assay, HAP1 MTAP-intact. It counts as cell-based. The following applies: Homo sapiens, HAP1, SDMA in-cell western, HAP1 MTAP-intact; read-out: MTAP HAP1 intact IC50. The method, boiled down: as §1

For `CCc1cc(NC(=O)C(=O)N2C[C@@H](C)CC[C@@H]2c2ccc(N3CCN(C)C[C@@H]3C)nc2)cnc1N` (racemic) [Compound 1099, N-(6-amino-5-ethyl-3-pyridyl)-2-[(2R,5S)-2-[6-[(2S)-2,4-dimethylpiperazin-1-yl]-3-pyridyl]-5-methyl-1-piperidyl]-2-oxo-acetamide], the IC50 in test [1] is less than 1000 nM; at PRMT5 [2], 50 to 500 nM; on PRMT5 [3] it was less than 50 nM; in test [4], less than 100 nM; at PRMT5 [5], less than 50 nM; in test [6], 100 to 1000 nM. Besides, in test [4], the MTAP intact/deleted ratio result is “A (an IC50 ratio greater than or equal to 10 fold)”.
In the case of `Cc1cc(NC(=O)C(=O)N2C[C@@H](C)CC[C@@H]2c2ccc3sc(-c4cnn(C)c4)nc3c2)cnc1N` (racemic) [Compound 1104, rac-N-(6-amino-5-methylpyridin-3-yl)-2-((2R,5S)-5-methyl-2-(2-(1-methyl-1H-pyrazol-4-yl)benzo[d]thiazol-5-yl)piperidin-1-yl)-2-oxoacetamide], the IC50 was less than 1000 nM in test [1]; 50 to 500 nM on PRMT5 [2]; less than 50 nM on PRMT5 [3]; less than 100 nM in test [4]; less than 50 nM at PRMT5 [5]; less than 100 nM in test [6]. The MTAP intact/deleted ratio entry in test [4] is “B (an IC50 ratio greater than or equal to 3 fold but lower than 10 fold)”.
With `Cc1cc(NC(=O)C(=O)N2C[C@H](C)CC[C@H]2c2ccc(N3CCN(C)CC3)cc2)cnc1N` (racemic) [Compound 1105, rac-N-(6-Amino-5-methyl-3-pyridyl)-2-[(2R,5S)-5-methyl-2-[4-(4-methylpiperazin-1-yl)phenyl]-1-piperidyl]-2-oxo-acetamide], the IC50 in test [1] was less than 1000 nM; on PRMT5 [2], 50 to 500 nM; on PRMT5 [3], 50 to 500 nM; in test [4], less than 100 nM; on PRMT5 [5], 50 to 500 nM; in test [6], 100 to 1000 nM. Further, in test [4], the MTAP intact/deleted ratio result was “A (an IC50 ratio greater than or equal to 10 fold)”.
In the case of `CCc1cc(NC(=O)C(=O)N2C[C@@H](C)CC[C@@H]2c2ccc3sc(C4CCN(C)C(=O)C4)nc3c2)cnc1N` (mixture of isomers) [Compound 1110, N-(6-amino-5-ethylpyridin-3-yl)-2-((2R,5S)-5-methyl-2-(2-(1-methyl-2-oxopiperidin-4-yl)benzo[d]thiazol-5-yl)piperidin-1-yl)-2-oxoacetamide], the IC50 in test [1] is less than 1000 nM; on PRMT5 [2], 50 to 500 nM; at PRMT5 [3], less than 50 nM; in test [4] it was less than 100 nM; on PRMT5 [5], less than 50 nM; in test [6], 100 to 1000 nM. The MTAP intact/deleted ratio result in test [4] was “A (an IC50 ratio greater than or equal to 10 fold)”.
As for `Cc1cc(NC(=O)C(=O)N2C[C@@H](C)CC[C@@H]2c2ccc3sc([C@H]4CCN(C)C(C)(C)C4)nc3c2)cnc1C` (racemic) [Compound 1113, N-(5,6-dimethyl-3-pyridyl)-2-oxo-2-[(2R,5S)-5-methyl-2-[2-[(4S)-1,2,2-trimethyl-4-piperidyl]-1,3-benzothiazol-5-yl]-1-piperidyl]acetamide], the IC50 was less than 1000 nM in test [1]; less than 50 nM at PRMT5 [2]; less than 50 nM at PRMT5 [3]; less than 100 nM in test [4]; less than 50 nM at PRMT5 [5]; 100 to 1000 nM in test [6]. Also, in test [4], the MTAP intact/deleted ratio result is given as “A (an IC50 ratio greater than or equal to 10 fold)”.
For the compound `COc1ncc(NC(=O)C(=O)N2C[C@@H](C)CC[C@@H]2c2ccc3nn(C4CCN(C)CC4)cc3c2)cc1C(N)=O` (racemic) [Compound 1115, 2-Methoxy-5-[[2-oxo-2-[rac-(2R,5S)-5-methyl-2-[2-(1-methyl-4-piperidyl)indazol-5-yl]-1-piperidyl]acetyl]amino]pyridine-3-carboxamide], the IC50 in test [1] was less than 1000 nM; on PRMT5 [2] it was less than 50 nM; on PRMT5 [3], less than 50 nM; in test [4], less than 100 nM; at PRMT5 [5], less than 50 nM; in test [6] it was 100 to 1000 nM. Besides, the MTAP intact/deleted ratio entry in test [4] is listed as “A (an IC50 ratio greater than or equal to 10 fold)”.
For the compound `COc1ncc(NC(=O)C(=O)N2C[C@@H](C)CC[C@@H]2c2ccc3sc([C@@H]4CCN(C)C[C@H]4C)nc3c2)cc1C(N)=O` (racemic) [Compound 1127, 2-methoxy-5-[[2-oxo-2-[rac-(2R,5S)-5-methyl-2-[2-[rac-(3S,4R)-1,3-dimethyl-4-piperidyl]-1,3-benzothiazol-5-yl]-1-piperidyl]acetyl]amino]pyridine-3-carboxamide], the IC50 in test [1] is less than 1000 nM; at PRMT5 [2], less than 50 nM; on PRMT5 [3], less than 50 nM; in test [4], less than 100 nM; at PRMT5 [5], less than 50 nM; in test [6], less than 100 nM. The MTAP intact/deleted ratio result in test [4] is on record as “A (an IC50 ratio greater than or equal to 10 fold)”.
As for `CCc1cc(NC(=O)C(=O)N2CC(C)CCC2c2ccc3sc(C4CCN(C)CC4C)nc3c2)cnc1N` (racemic) [Compound 1131, N-(6-amino-5-ethyl-3-pyridyl)-2-oxo-2-[rac-(2R,5S)-5-methyl-2-[2-[rac-(3R,4R)-1,3-dimethyl-4-piperidyl]-1,3-benzothiazol-5-yl]-1-piperidyl]acetamide], the IC50 in test [1] is less than 1000 nM; on PRMT5 [2], less than 50 nM; at PRMT5 [3] it was less than 50 nM; in test [4], less than 100 nM; at PRMT5 [5] it was less than 50 nM; in test [6], less than 100 nM. Also, the MTAP intact/deleted ratio result in test [4] was “B (an IC50 ratio greater than or equal to 3 fold but lower than 10 fold)”.
In the case of `CCc1cc(NC(=O)C(=O)N2C[C@@H](C)[C@@H](OC)C[C@@H]2c2cccc(OCCN(C)C)c2)cnc1N` (racemic) [Compound 1139, N-(6-amino-5-ethyl-3-pyridyl)-2-oxo-2-[rac-(2R,4S,5R)-2-[3-[2-(dimethylamino)ethoxy]phenyl]-4-methoxy-5-methyl-1-piperidyl]acetamide], the IC50 is less than 1000 nM in test [1]; 50 to 500 nM at PRMT5 [2]; 50 to 500 nM at PRMT5 [3]; less than 100 nM in test [4]; 50 to 500 nM on PRMT5 [5]; less than 100 nM in test [6]. In addition, the MTAP intact/deleted ratio entry in test [4] was “B (an IC50 ratio greater than or equal to 3 fold but lower than 10 fold)”.
As to `CCc1cc(NC(=O)C(=O)N2C[C@@H](C)CC[C@@H]2c2ccc3nn(C4CC(C)(C)N(C)C(C)(C)C4)cc3c2)cnc1N` (racemic) [Compound 1140, N-(6-Amino-5-ethyl-3-pyridyl)-2-oxo-2-[rac-(2R,5S)-5-methyl-2-[2-(1,2,2,6,6-pentamethyl-4-piperidyl)indazol-5-yl]-1-piperidyl]acetamide], the IC50 is less than 1000 nM in test [1]; less than 50 nM at PRMT5 [2]; less than 50 nM on PRMT5 [3]; less than 100 nM in test [4]; less than 50 nM at PRMT5 [5]; less than 100 nM in test [6]. Besides, the MTAP intact/deleted ratio entry in test [4] is “A (an IC50 ratio greater than or equal to 10 fold)”.
For `COc1ncc(NC(=O)C(=O)N2C[C@@H](C)CC[C@@H]2c2ccc3nn([C@@H]4CCN(C)C4)cc3c2)cc1C(N)=O` (racemic) [Compound 1141, 2-Methoxy-5-[[2-oxo-2-[rac-(2R,5S)-5-methyl-2-[2-[rac-(3R)-1-methylpyrrolidin-3-yl]indazol-5-yl]-1-piperidyl]acetyl]amino]pyridine-3-carboxamide], the IC50 is less than 1000 nM in test [1]; 50 to 500 nM on PRMT5 [2]; less than 50 nM on PRMT5 [3]; less than 100 nM in test [4]; less than 50 nM at PRMT5 [5]; 100 to 1000 nM in test [6]. For the same compound, the MTAP intact/deleted ratio entry in test [4] was “A (an IC50 ratio greater than or equal to 10 fold)”.
`Cc1cc(NC(=O)C(=O)N2C[C@H](C)CC[C@H]2c2ccc3scc(CCN(C)C)c3c2)cnc1N` (racemic) [Compound 1142, N-(6-amino-5-methyl-3-pyridyl)-2-[(2S,5R)-2-[3-[2-(dimethylamino)ethyl]benzothiophen-5-yl]-5-methyl-1-piperidyl]-2-oxo-acetamide]: the IC50 in test [1] is less than 1000 nM; at PRMT5 [2], 50 to 500 nM; on PRMT5 [3] it was 50 to 500 nM; in test [4], less than 100 nM; at PRMT5 [5], less than 50 nM; in test [6], less than 100 nM. Moreover, the MTAP intact/deleted ratio entry in test [4] is given as “B (an IC50 ratio greater than or equal to 3 fold but lower than 10 fold)”.
For `Cc1cc(NC(=O)C(=O)N2C[C@H](C)CC[C@H]2c2cccc(C3CCN(C)CC3)c2)cnc1N` (racemic) [Compound 1149, N-(6-amino-5-methylpyridin-3-yl)-2-(5-methyl-2-(3-(1-methylpiperidin-4-yl)phenyl)piperidin-1-yl)-2-oxoacetamide], the IC50 in test [1] was less than 1000 nM; on PRMT5 [2], 50 to 500 nM; on PRMT5 [3] it was 50 to 500 nM; in test [4] it was less than 100 nM; at PRMT5 [5], less than 50 nM; in test [6], 100 to 1000 nM. Also, the MTAP intact/deleted ratio entry in test [4] is “A (an IC50 ratio greater than or equal to 10 fold)”.

The values above are taken from patent US11999727B2 (Tango Therapeutics, Inc., priority 2020, dated 2024).
